Measured values published in publication PMC6411751, “Use of machine learning to identify novel, behaviorally active antagonists of the insect odorant receptor co-receptor (Orco) subunit” (Scientific Reports, 2019).
Where a name gives a salt, the structure may show the parent alone. Read-outs that look alike come from different tables or passages of the source.

Assays:
Assay type in all cases: cell-based
[1] = target: T1, Agam\Or28 + Agam\Orco (Anopheles gambiae, UniProt Q7QCC7); assay: Inhibition of heteromeric OR in oocytes (acetophenone activation); settings: for inhibition of odorant activation: 100 µM antagonist, 40 µM acetophenone
T1 construct: expressed in transfected cells; host or cells: Xenopus laevis oocytes
T1 sequence (Q7QCC7 1-478): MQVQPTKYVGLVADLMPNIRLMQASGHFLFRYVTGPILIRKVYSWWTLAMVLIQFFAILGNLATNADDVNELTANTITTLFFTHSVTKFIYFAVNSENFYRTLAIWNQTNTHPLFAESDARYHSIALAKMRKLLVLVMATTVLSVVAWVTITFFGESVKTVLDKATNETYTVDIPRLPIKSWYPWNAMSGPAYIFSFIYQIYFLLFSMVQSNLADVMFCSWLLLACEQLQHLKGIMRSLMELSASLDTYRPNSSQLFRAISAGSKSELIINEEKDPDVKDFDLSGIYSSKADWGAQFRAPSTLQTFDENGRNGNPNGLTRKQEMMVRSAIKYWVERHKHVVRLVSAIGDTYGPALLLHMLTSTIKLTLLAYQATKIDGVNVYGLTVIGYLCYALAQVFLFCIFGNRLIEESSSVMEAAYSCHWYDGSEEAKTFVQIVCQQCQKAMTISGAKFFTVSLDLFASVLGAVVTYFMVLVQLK
Description: (§1) An automated parallel electrophysiology system (OpusExpress 6000 A, Molecular Devices) was used to record Orco agonist (OLC12) or odorant induced currents under two-electrode voltage clamp. Oocytes were perfused with ND96 (in mM: 96 NaCl, 2 KCl, 1 CaCl2, 1 MgCl2, 5 HEPES, pH 7.4). DMSO was used to prepare 1 M or 100 mM stock solutions of test compounds, which were then diluted in ND96 on the day of the experiment. Compounds were applied at a flow rate of 1.0 mL/min, with extensive washing in ND96 at 4.6 mL/min between applications. Micropipettes with resistances of 0.2–2.0 MΩ were filled with 3 M KCl. The holding potential was −70 mV. Current responses were filtered (4-pole, Bessel, low pass) at 20 Hz (−3 db) and sampled at 100 Hz. OpusXpress 1.1 software (Molecular Devices) was used to capture and store current responses.

[2] = target: T2, Agam\Or65 + Agam\Orco (Anopheles gambiae, UniProt Q7QCC7); assay: Inhibition of heteromeric OR in oocytes (eugenol activation); settings: 100 µM antagonist; 100 nM eugenol
T2 construct: expressed in transfected cells; host or cells: Xenopus laevis oocytes
T2 sequence (Q7QCC7 1-478): T1 sequence (Q7QCC7 1-478)
Description: as §1
To measure the ability of Orco antagonists to inhibit odorant activation, oocytes expressing heteromeric ORs (Orco + ORX) were exposed to a 30 sec application of odorant followed by a 20 min wash. Oocytes were then exposed to a 90 sec application of Orco antagonist, immediately followed by a 30 sec co-application of Orco antagonist and odorant. The current response to odorant in the presence of Orco antagonist was compared to the preceding response to odorant alone and represented as a percentage. This value was then normalized to the value obtained when the assay was run in the absence of antagonist (sham).
Figure S3. Effects of Orco antagonists on heteromeric ORs. […]
heteromeric complexes of odorant specificity subunits and Orco. The Orco antagonists tested were 3-isopropyl-6-methyl-catechol (3 I6 MC), a potent compound from the input training set, and two compounds id e ntified in Fig u re 4 an d Ta b le 1 : 2-tert-butyl-6-methylphenol (B MP ) and linalyl formate (LF) . […]
SEM (n = 4). […] Statistical significance of the data in each panel was assessed by one-way analysis of variance followed by Dunnett’s […]

[3] = target: T3, Agam\Orco (Anopheles gambiae, UniProt Q7QCC7); assay: cell-based
T3 construct: expressed in transfected cells; host or cells: Xenopus laevis oocytes injected with capped cRNA (plasmid pT7TS, gift of L. Zwiebel)
T3 sequence (Q7QCC7 1-478): T1 sequence (Q7QCC7 1-478)
Procedure, shortened: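 Xenopus oocytes injected with 25 ng Agam\Orco cRNA, clamped at −70 mV in ND96 by two-electrode voltage clamp. After two 60 s pulses of 30 μM OLC12, compound applied 90 s then co-applied with OLC12 60 s; response was given as percent of prior OLC12 responses, sham-normalized.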

Compound	inhibition of odorant activation [1]	inhibition of odorant activation [2]	IC50 ([3]; read-out: IC50) [µM]	inhibition of OLC12 activation ([3]; 100 µM compound, 30 µM OLC12)	IC50 ([3]; Agam\Orco activated by 30 µM OLC12, read-out: IC50) [µM]	IC50 ([1]; 100 µM acetophenone, n = 4-8, read-out: IC50 for inhibition of Agam\Or28 + Agam\Orco activation by 100 µM ACE) [µM]	mechanism of inhibition of odorant responses ([1]; 10 vs 100 µM acetophenone fails to shift inhibition curve)	more potent than LF [3] [fold]	IC50 ([3]; 10 µM OLC12, n = 4-7, read-out: IC50 for inhibition of Agam\Orco activation by 10 µM OLC12) [µM]	IC50 ([3]; 100 µM OLC12, n = 3-9, read-out: IC50 for inhibition of Agam\Orco activation by 100 µM OLC12) [µM]	mechanism of inhibition of Orco agonist (OLC12) responses ([3]; 10 vs 100 µM OLC12 shifts inhibition curve)	IC50 ([3]; Table 1, inhibition of Agam\Orco activated by 30 µM OLC12, mean ± SEM (n = 3–8), read-out: IC50) [µM]
C=CC(C)(CCC=C(C)C)OC=O (stereo not shown) [LF, linalyl formate]	able to inhibit odorant activation	able to inhibit odorant activation	251 ± 39	–	–	–	–	–	–	–	–	–
Cc1ccc(C(C)C)c(O)c1O [3I6MC, 3-isopropyl-6-methyl catechol]	could inhibit odorant activation	could inhibit odorant activation	–	strongly inhibited	41 ± 7	–	–	–	–	–	–	–
Cc1cccc(C(C)(C)C)c1O [BMP, 2-tert-butyl-6-methylphenol]	able to inhibit odorant activation	able to inhibit odorant activation	–	–	–	53 ± 9	non-competitive	5	12 ± 2	137 ± 38	competitive	48 ± 5
